# Assay results: patent publication US8471005B2 (Cephalon, Inc., priority 2008, dated 2013)
# Read-outs that look alike come from different tables or passages of the source.
# Columns and labels:
# ALK = target: T1, ALK (Homo sapiens, UniProt Q9UM73); test: ALK Kinase Assay (ELISA/TRF, PLC-γ substrate); format: biochemical; conditions: read-out: ALK Potency
# T1 construct: host or cells: baculovirus expression system
# How it was run: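 First, plates are coated with substrate (phospholipase C-γ, 10 μg/mL, TBS). Next, 30 ng/ml ALK initiates phosphorylation for 15 min at 37° C. Then Eu-N1 PT66 antibody is added for detection, and a nonlinear dose-response fit of percent inhibition yields IC50.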
# JAK2 = target: T2, JAK2 (Homo sapiens, UniProt O60674); test: Recombinant Human JAK2 Kinase Assay (TRF); format: biochemical; conditions: read-out: JAK2 Potency
# T2 construct: host or cells: baculovirus expression system
# How it was run: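 TRF read-out: Eu-N1 PY100 anti-phosphotyrosine antibody detects product. Enzyme is baculovirus-expressed JAK2 at 15 ng/ml; substrate is a biotinyl 15-mer peptide bound to Neutravidin-coated wells. Buffer 20 mM HEPES pH 7.2, 0.2 μM ATP, 1 mM MnCl2, 0.1% BSA, 2.5% DMSO final; 20 min, RT.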
# [1] = ALK kinase inhibition, 1 μM ATP
# [2] = JAK2 kinase inhibition, 0.2 μM ATP
# T2 sequence (O60674 whole entry): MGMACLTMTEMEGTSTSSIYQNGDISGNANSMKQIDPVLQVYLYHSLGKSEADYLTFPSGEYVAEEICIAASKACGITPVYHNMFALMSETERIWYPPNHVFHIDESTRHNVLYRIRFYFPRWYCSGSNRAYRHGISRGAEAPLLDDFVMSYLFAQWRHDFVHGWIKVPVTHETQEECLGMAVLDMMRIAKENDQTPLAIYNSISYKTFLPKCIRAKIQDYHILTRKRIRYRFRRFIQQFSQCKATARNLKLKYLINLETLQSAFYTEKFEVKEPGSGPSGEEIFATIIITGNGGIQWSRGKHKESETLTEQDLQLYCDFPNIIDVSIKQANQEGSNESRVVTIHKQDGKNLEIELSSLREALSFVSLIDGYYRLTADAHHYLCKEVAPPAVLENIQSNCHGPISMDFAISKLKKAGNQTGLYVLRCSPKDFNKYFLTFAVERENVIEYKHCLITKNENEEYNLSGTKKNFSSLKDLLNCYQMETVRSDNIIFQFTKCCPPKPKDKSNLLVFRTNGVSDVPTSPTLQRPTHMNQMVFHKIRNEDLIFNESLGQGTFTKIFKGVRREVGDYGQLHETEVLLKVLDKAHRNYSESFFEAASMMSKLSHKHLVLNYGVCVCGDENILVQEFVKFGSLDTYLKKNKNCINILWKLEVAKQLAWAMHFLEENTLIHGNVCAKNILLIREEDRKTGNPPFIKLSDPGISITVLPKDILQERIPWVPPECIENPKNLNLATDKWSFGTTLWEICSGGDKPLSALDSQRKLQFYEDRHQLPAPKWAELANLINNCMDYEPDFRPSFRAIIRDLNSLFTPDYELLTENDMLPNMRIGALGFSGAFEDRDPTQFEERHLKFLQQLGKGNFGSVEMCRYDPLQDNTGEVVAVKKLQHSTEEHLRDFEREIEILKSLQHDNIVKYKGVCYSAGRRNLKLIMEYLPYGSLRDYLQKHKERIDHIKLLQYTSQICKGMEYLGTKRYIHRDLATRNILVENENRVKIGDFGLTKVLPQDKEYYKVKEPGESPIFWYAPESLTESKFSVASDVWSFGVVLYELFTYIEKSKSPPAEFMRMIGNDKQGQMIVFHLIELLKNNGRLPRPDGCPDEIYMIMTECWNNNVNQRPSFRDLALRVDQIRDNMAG
# T1 sequence (Q9UM73 19-1620): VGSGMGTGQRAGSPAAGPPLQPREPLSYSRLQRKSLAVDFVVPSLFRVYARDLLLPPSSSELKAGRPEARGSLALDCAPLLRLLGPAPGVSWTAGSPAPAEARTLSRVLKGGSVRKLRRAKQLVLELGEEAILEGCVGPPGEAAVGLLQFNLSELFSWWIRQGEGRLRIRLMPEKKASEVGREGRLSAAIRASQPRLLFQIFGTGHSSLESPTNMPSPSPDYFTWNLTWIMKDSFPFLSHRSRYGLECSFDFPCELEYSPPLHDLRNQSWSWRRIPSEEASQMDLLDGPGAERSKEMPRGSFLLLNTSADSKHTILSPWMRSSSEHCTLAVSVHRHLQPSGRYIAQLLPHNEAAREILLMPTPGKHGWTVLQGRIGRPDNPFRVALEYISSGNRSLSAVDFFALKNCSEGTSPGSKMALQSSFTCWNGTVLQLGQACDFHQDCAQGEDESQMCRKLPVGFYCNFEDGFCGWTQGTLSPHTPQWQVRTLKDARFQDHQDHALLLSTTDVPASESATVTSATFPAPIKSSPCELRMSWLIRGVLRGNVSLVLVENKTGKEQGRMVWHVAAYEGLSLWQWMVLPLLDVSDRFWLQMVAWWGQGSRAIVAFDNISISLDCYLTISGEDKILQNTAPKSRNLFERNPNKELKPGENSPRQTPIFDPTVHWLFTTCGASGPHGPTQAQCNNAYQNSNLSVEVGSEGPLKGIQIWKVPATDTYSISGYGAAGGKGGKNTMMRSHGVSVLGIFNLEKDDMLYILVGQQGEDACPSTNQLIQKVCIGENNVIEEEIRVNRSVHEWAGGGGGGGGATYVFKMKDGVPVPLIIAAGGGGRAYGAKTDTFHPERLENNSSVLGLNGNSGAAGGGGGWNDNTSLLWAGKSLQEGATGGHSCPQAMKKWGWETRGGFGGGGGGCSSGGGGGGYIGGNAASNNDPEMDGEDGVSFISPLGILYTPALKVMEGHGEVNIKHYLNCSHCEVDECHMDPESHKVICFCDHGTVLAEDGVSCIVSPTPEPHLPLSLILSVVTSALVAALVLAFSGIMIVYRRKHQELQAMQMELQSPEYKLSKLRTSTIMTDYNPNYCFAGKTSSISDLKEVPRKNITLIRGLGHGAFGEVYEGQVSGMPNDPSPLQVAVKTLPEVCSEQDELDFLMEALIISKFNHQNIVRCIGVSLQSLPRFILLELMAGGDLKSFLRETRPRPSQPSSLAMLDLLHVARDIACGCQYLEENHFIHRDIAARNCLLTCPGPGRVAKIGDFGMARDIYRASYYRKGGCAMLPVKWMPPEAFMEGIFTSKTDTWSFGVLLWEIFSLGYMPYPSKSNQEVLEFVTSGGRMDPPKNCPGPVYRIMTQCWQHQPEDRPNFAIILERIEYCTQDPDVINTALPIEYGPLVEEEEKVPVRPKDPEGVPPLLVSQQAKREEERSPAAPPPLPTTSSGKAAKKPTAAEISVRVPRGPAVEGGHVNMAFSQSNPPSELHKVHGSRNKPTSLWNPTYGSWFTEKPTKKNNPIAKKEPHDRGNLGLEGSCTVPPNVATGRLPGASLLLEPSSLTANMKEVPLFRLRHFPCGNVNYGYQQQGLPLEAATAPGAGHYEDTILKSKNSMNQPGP
SMILES,IC50 (ALK; ALK Kinase Inhibition),IC50 (JAK2; JAK2 Kinase Inhibition),IC50 (ALK; [1]),IC50 (JAK2; [2])
"CC(=O)N1CCc2ccc(Nc3ncc4ccc(-c5cnn(C)c5)n4n3)cc21 [Example 966, 1-{6-[7-(1-Methyl-1H-pyrazol-4-yl)-pyrrolo[2,1-f][1,2,4]triazin-2-ylamino]-2,3-dihydro-indol-1-yl}-ethanone]",–,–,1 to 10 µM,< 0.1 µM
"COc1cc(C2CCN(C(=O)CN)CC2)ccc1Nc1ncc2ccc(-c3ccccc3N(C)S(C)(=O)=O)n2n1 [Example 824, N-[2-(2-{4-[1-(2-Amino-acetyl)-piperidin-4-yl]-2-methoxy-phenylamino}-pyrrolo[2,1-f][1,2,4]triazin-7-yl)-phenyl]-N-methyl-methanesulfonamide]",–,–,< 0.1 µM,1 to 10 µM
"CS(=O)(=O)Nc1cccc(-c2ccc3cnc(Nc4ccc(C5CCN(CC(N)=O)CC5)cc4)nn23)c1 [Example 956, 2-(4-{4-[7-(3-Methanesulfonylamino-phenyl)-pyrrolo[2,1-f][1,2,4]triazin-2-ylamino]-phenyl}-piperidin-1-yl)-acetamide]",–,–,0.1 to 1 µM,< 0.1 µM
"CN(C)CC(=O)Nc1cccc(Nc2ncc3ccc(-c4cccc(S(=O)(=O)NC(C)(C)C)c4)n3n2)c1 [Example 897, N-{3-[7-(3-tert-Butylsulfamoyl-phenyl)-pyrrolo[2,1-f][1,2,4]triazin-2-ylamino]-phenyl}-2-dimethylamino-acetamide]",–,–,< 0.1 µM,< 0.1 µM
"COc1cc(Nc2ncc3ccc(-c4cccc(S(=O)(=O)NC(C)(C)C)c4)n3n2)ccc1C1CCN(CC(N)=O)CC1 [Example 924, 2-(4-{4-[7-(3-tert-Butylsulfamoyl-phenyl)-pyrrolo[2,1-f][1,2,4]triazin-2-ylamino]-2-methoxy-phenyl}-piperidin-1-yl)-acetamide]",–,–,< 0.1 µM,< 0.1 µM
"COc1cc(N2CCC(N(C)C)CC2)ccc1Nc1ncc2ccc(-c3ccccc3N(C)S(C)(=O)=O)n2n1 [Example 475, N-(2-{2-[4-(4-Dimethylamino-piperidin-1-yl)-2-methoxy-phenylamino]-pyrrolo[2,1-f][1,2,4]triazin-7-yl}-phenyl)-N-methyl-methanesulfonamide]",–,–,< 0.1 µM,0.1 to 1 µM
"c1ccc(-c2ccc3cnc(NCCN4CCOCC4)nn23)cc1 [Example 28, (2-Morpholin-4-yl-ethyl)-(7-phenyl-pyrrolo[2,1-f][1,2,4]triazin-2-yl)-amine]",> 10 µM,1 to 10 µM,–,–
"CS(=O)(=O)c1ccc(-c2ccc3cnc(Nc4cccc(N5CCN(CCO)CC5)c4)nn23)cc1 [Example 181, 2-(4-{3-[7-(4-Methanesulfonyl-phenyl)-pyrrolo[2,1-f][1,2,4]triazin-2-ylamino]-phenyl}-piperazin-1-yl)-ethanol]",0.1 to 1 µM,< 0.1 µM,–,–
"COc1cc(Nc2ncc3ccc(-c4cccc(Cl)c4)n3n2)cc(OC)c1OC [Example 143, [7-(3-Chloro-phenyl)-pyrrolo[2,1-f][1,2,4]triazin-2-yl]-(3,4,5-trimethoxy-phenyl)-amine]",0.1 to 1 µM,< 0.1 µM,–,–
"CN1CCN(C(=O)c2cccc(Nc3ncc4ccc(-c5ccc(S(C)(=O)=O)cc5)n4n3)c2)CC1 [Example 342, {3-[7-(4-Methanesulfonyl-phenyl)-pyrrolo[2,1-f][1,2,4]triazin-2-ylamino]-phenyl}-(4-methyl-piperazin-1-yl)-methanone]",1 to 10 µM,< 0.1 µM,–,–
"CN1CCN(c2ccc(Nc3ncc4ccc(-c5ccc(C(=O)N6CCOCC6)cc5)n4n3)cc2)CC1 [Example 19, (4-{2-[4-(4-Methyl-piperazin-1-yl)-phenylamino]-pyrrolo[2,1-f][1,2,4]triazin-7-yl}-phenyl)-morpholin-4-yl-methanone]",0.1 to 1 µM,< 0.1 µM,–,–
"CS(=O)(=O)c1cccc(-c2ccc3cnc(Nc4ccc(F)c(Cl)c4)nn23)c1 [Example 597, (3-Chloro-4-fluoro-phenyl)-[7-(3-methanesulfonyl-phenyl)-pyrrolo[2,1-f][1,2,4]triazin-2-yl]-amine]",–,–,> 10 µM,< 0.1 µM
"COc1cc(N2CCC(N3CCOCC3)CC2)ccc1Nc1ncc2ccc(-c3ccccc3NC(C)=O)n2n1 [Example 453, N-(2-{2-[2-Methoxy-4-(4-morpholin-4-yl-piperidin-1-yl)-phenylamino]-pyrrolo[2,1-f][1,2,4]triazin-7-yl}-phenyl)-acetamide]",0.1 to 1 µM,1 to 10 µM,–,–
"COc1ccccc1-c1ccc2cnc(Nc3cccc(C4C(=O)N(C)CCN4C)c3)nn12 (centres unmarked) [Example 1082, 3-{3-[7-(2-Methoxy-phenyl)-pyrrolo[2,1-f][1,2,4]triazin-2-ylamino]-phenyl}-1,4-dimethyl-piperazin-2-one]",–,–,1 to 10 µM,< 0.1 µM

# More lines, now with the values ahead:
IC50 (ALK; ALK Kinase Inhibition),IC50 (JAK2; JAK2 Kinase Inhibition),IC50 (ALK; [1]),IC50 (JAK2; [2]),SMILES
> 10 µM,> 10 µM,–,–,"COc1ccccc1-c1ccc2cnc(-c3nnc(C)[nH]3)nn12 [Example 1501, 7-(2-Methoxy-phenyl)-2-(5-methyl-4H-[1,2,4]triazol-3-yl)-pyrrolo[2,1-f][1,2,4]triazine]"
0.1 to 1 µM,< 0.1 µM,–,–,"CN(c1ccccc1-c1ccc2cnc(Nc3ccc4nc(CN5CCOCC5)[nH]c4c3)nn12)S(C)(=O)=O [Example 1517, N-Methyl-N-{2-[2-(2-morpholin-4-ylmethyl-3H-benzimidazol-5-ylamino)-pyrrolo[2,1-f][1,2,4]triazin-7-yl]-phenyl}-methanesulfonamide]"
–,–,< 0.1 µM,< 0.1 µM,"CN(c1ccccc1-c1ccc2cnc(Nc3ccc(N4CCN(CCO)CC4)cc3)nn12)S(C)(=O)=O [Example 1175, N-[2-(2-{4-[4-(2-Hydroxy-ethyl)-piperazin-1-yl]-phenylamino}-pyrrolo[2,1-f][1,2,4]triazin-7-yl)-phenyl]-N-methyl-methanesulfonamide]"
–,–,< 0.1 µM,0.1 to 1 µM,"COC[C@H](O)CN1CCN(Cc2ccc(Nc3ncc4ccc(-c5ccccc5OC)n4n3)c(OC)c2)CC1 [Example 1227, (R)-1-Methoxy-3-(4-{3-methoxy-4-[7-(2-methoxy-phenyl)-pyrrolo[2,1-f][1,2,4]triazin-2-ylamino]-benzyl}-piperazin-1-yl)-propan-2-ol]"
–,–,1 to 10 µM,< 0.1 µM,"CC(=O)Nc1cccc(Nc2ncc3ccc(-c4cccn4CCC#N)n3n2)c1 [Example 1294, N-(3-{7-[1-(2-Cyano-ethyl)-1H-pyrrol-2-yl]-pyrrolo[2,1-f][1,2,4]triazin-2-ylamino}-phenyl)-acetamide]"
< 0.1 µM,0.1 to 1 µM,–,–,"COc1cc(N2CCN(C[C@H](C)O)CC2)c(F)cc1Nc1ncc2ccc(-c3ccccc3OC)n2n1 [Example 1480, (S)-1-(4-{2-Fluoro-5-methoxy-4-[7-(2-methoxy-phenyl)-pyrrolo[2,1-f][1,2,4]triazin-2-ylamino]-phenyl}-piperazin-1-yl)-propan-2-ol]"
< 0.1 µM,1 to 10 µM,–,–,"COc1cc2c(cc1Nc1ncc3ccc(-c4ccccc4N(C)S(C)(=O)=O)n3n1)CCC1(CCN(C[C@H](C)O)CC1)O2 [Example 1496, N-{2-[2-({1′-[(25)-2-hydroxypropyl]-7-methoxy-3,4-dihydrospiro[chromene-2,4′-piperidin]-6-yl}amino)pyrrolo[2,1-f][1,2,4]triazin-7-yl]phenyl}-N-methylmethanesulfonamide]"
1 to 10 µM,< 0.1 µM,–,–,"CS(=O)(=O)c1ccc(-c2ccc3cnc(Nc4ccc5[nH]c(CN6CCN(CCO)CC6)nc5c4)nn23)cc1 [Example 1543, 2-(4-{5-[7-(4-Methanesulfonyl-phenyl)-pyrrolo[2,1-f][1,2,4]triazin-2-ylamino]-1H-benzimidazol-2-ylmethyl}-piperazin-1-yl)-ethanol]"
1 to 10 µM,< 0.1 µM,–,–,"CC(C)(C)NS(=O)(=O)c1cccc(-c2ccc3cnc(Nc4cccc(C(N)=O)c4)nn23)c1 [Example 1390, 3-[7-(3-tert-Butylsulfamoyl-phenyl)-pyrrolo[2,1-f][1,2,4]triazin-2-ylamino]-benzamide]"
–,–,0.1 to 1 µM,1 to 10 µM,"COCCOc1ccccc1-c1ccc2cnc(Nc3ccc(C4CCN(CC(N)=O)CC4)cc3OC)nn12 [Example 1271, 2-[4-(3-Methoxy-4-{7-[2-(2-methoxy-ethoxy)-phenyl]-pyrrolo[2,1-f][1,2,4]triazin-2-ylamino}-phenyl)-piperidin-1-yl]-acetamide]"
–,–,0.1 to 1 µM,< 0.1 µM,"CN1CCN(c2ccc(Nc3ncc4ccc(C5=CCN(S(C)(=O)=O)CC5)n4n3)cc2)CC1 [Example 1139, [7-(1-Methane sulfonyl-1,2,3,6-tetrahydro-pyridin-4-yl)-pyrrolo[2,1-f][1,2,4]triazin-2-yl]-[4-(4-methyl-piperazin-1-yl)-phenyl]-amine]"
< 0.1 µM,< 0.1 µM,–,–,"COc1cc(N2CCC(N3CCOCC3)CC2)ccc1Nc1ncc2ccc(-c3ccccc3N(CC3CC3)S(C)(=O)=O)n2n1 [Example 1461, N-Cyclopropylmethyl-N-(2-{2-[2-methoxy-4-(4-morpholin-4-yl-piperidin-1-yl)-phenylamino]-pyrrolo[2,1-f][1,2,4]triazin-7-yl}-phenyl)-methanesulfonamide]"
< 0.1 µM,< 0.1 µM,–,–,"COc1cc(N2CCC(N3CCOCC3)CC2)ccc1Nc1ncc2ccc(-c3ccccc3Cl)n2n1 [Example 1466, [7-(2-Chloro-phenyl)-pyrrolo[2,1-f][1,2,4]triazin-2-yl]-[2-methoxy-4-(4-morpholin-4-yl-piperidin-1-yl)-phenyl]-amine]"
–,–,1 to 10 µM,< 0.1 µM,"CS(=O)(=O)Nc1cccc(-c2ccc3cnc(Nc4ccn(CCN5CCOCC5)n4)nn23)c1 [Example 1185, N-(3-{2-[1-(2-Morpholin-4-yl-ethyl)-1H-pyrazol-3-ylamino]-pyrrolo[2,1-f][1,2,4]triazin-7-yl}-phenyl)-methanesulfonamide]"
